Laboratory results from PubChem BioAssay AID248 (DTP/NCI, 2004).
Inconclusive results and toxic doses are left out.

Tested on: L1210 leukemia ip in BDF1 mice, survival T/C
Assay: NCI In Vivo Anticancer Drug Screen. Data for tumor model L1210 Leukemia (intraperitoneal) in B6D2F1 (BDF1) mice
Details: endpoint: mean survival time, higher = longer survival
How it was run: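 Value reflects the ratio of survival in compound-treated mice to survival in vehicle-treated controls, with both groups carrying the same transplanted tumor.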

[1] = dose: 100.0 mg/kg/injection, schedule: Q01DX009 (ip), vehicle: Klucel (hydroxypropylcellulose) (HPC)
[2] = dose: 200.0 mg/kg/injection, schedule: Q01DX009 (ip), vehicle: Klucel (hydroxypropylcellulose) (HPC)
[3] = dose: 100.0 mg/kg/injection, schedule: Q01DX009 (ip), vehicle: saline with Tween-80
[4] = dose: 200.0 mg/kg/injection, schedule: Q01DX009 (ip), vehicle: saline with Tween-80
[5] = dose: 100.0 mg/kg/injection, schedule: Q01DX001 (ip), vehicle: carboxymethylcellulose (CMC)
[6] = dose: 100.0 mg/kg/injection, schedule: Q04DX003 (ip), vehicle: saline
[7] = dose: 200.0 mg/kg/injection, schedule: Q01DX001 (ip), vehicle: carboxymethylcellulose (CMC)
[8] = dose: 200.0 mg/kg/injection, schedule: Q04DX003 (ip), vehicle: saline
[9] = dose: 400.0 mg/kg/injection, schedule: Q01DX001 (ip), vehicle: carboxymethylcellulose (CMC)
[10] = dose: 400.0 mg/kg/injection, schedule: Q04DX003 (ip), vehicle: saline
[11] = dose: 100.0 mg/kg/injection, schedule: Q01DX001 (ip), vehicle: saline
[12] = dose: 50.0 mg/kg/injection, schedule: Q01DX001 (ip), vehicle: carboxymethylcellulose (CMC)

With `CN(CCCN1C(=O)c2ccccc2C1=O)c1ccc(NS(=O)(=O)c2ccc([N+](=O)[O-])cc2)cc1` the T/C (dose: 100.0 mg/kg/injection, schedule: Q01DX001 (ip), vehicle: Klucel (hydroxypropylcellulose) (HPC)) was 100 % of control, the T/C (dose: 200.0 mg/kg/injection, schedule: Q01DX001 (ip), vehicle: Klucel (hydroxypropylcellulose) (HPC)) was 103 % of control and the T/C (dose: 400.0 mg/kg/injection, schedule: Q01DX001 (ip), vehicle: Klucel (hydroxypropylcellulose) (HPC)) was 97 % of control.

For `CCCCCCCCCCCCCCCC(=O)OCC1OC(CO)(OC2OC(CO)C(O)C(O)C2O)C(O)C1O` (stereo not drawn), the T/C [1] was 91 % of control, the T/C (dose: 100.0 mg/kg/injection, schedule: Q04DX003 (ip), vehicle: Klucel (hydroxypropylcellulose) (HPC)) was 89 % of control and the T/C [2] was 94 % of control. The T/C (dose: 200.0 mg/kg/injection, schedule: Q04DX003 (ip), vehicle: Klucel (hydroxypropylcellulose) (HPC)) was 91 % of control and the T/C (dose: 400.0 mg/kg/injection, schedule: Q04DX003 (ip), vehicle: Klucel (hydroxypropylcellulose) (HPC)) was 98 % of control.

In the case of `CC(=O)n1ncc2ccc([N+](=O)[O-])cc21`, the T/C (dose: 100.0 mg/kg/injection, schedule: Q01DX009 (ip), vehicle: water) was 105 % of control, the T/C (dose: 100.0 mg/kg/injection, schedule: Q04DX003 (ip), vehicle: water) was 93 % of control and the T/C (dose: 200.0 mg/kg/injection, schedule: Q01DX009 (ip), vehicle: water) was 105 % of control. The T/C (dose: 200.0 mg/kg/injection, schedule: Q04DX003 (ip), vehicle: water) was 100 % of control, the T/C (dose: 400.0 mg/kg/injection, schedule: Q01DX009 (ip), vehicle: water) was 107 % of control and the T/C (dose: 400.0 mg/kg/injection, schedule: Q04DX003 (ip), vehicle: water) was 96 % of control.

For `CC(C)CCC[C@@H](C)[C@H]1CC[C@H]2[C@@H]3CC[C@H]4C[C@H](NC(=O)N(CCF)N=O)CC[C@]4(C)[C@H]3CC[C@]12C`, the T/C (dose: 8.0 mg/kg/injection, schedule: Q01DX001 (ip), vehicle: other) was 102 % of control, the T/C (dose: 16.0 mg/kg/injection, schedule: Q01DX001 (ip), vehicle: other) was 103 % of control and the T/C (dose: 31.0 mg/kg/injection, schedule: Q01DX001 (ip), vehicle: other) was 108 % of control. The T/C (dose: 62.0 mg/kg/injection, schedule: Q01DX001 (ip), vehicle: other) was 116 % of control, the T/C (dose: 250.0 mg/kg/injection, schedule: Q01DX001 (ip), vehicle: other) was 116 % of control and the T/C (dose: 375.0 mg/kg/injection, schedule: Q01DX001 (ip), vehicle: other) was 122 % of control. For the same compound, the T/C (dose: 500.0 mg/kg/injection, schedule: Q01DX001 (ip), vehicle: other) was 124 % of control, the T/C (dose: 750.0 mg/kg/injection, schedule: Q01DX001 (ip), vehicle: other) was 170 % of control and the T/C (dose: 1000.0 mg/kg/injection, schedule: Q01DX001 (ip), vehicle: other) was 153 % of control. For the same compound, the T/C (dose: 1500.0 mg/kg/injection, schedule: Q01DX001 (ip), vehicle: other) was 188 % of control, the T/C (dose: 2000.0 mg/kg/injection, schedule: Q01DX001 (ip), vehicle: other) was 202 % of control and the T/C (dose: 2500.0 mg/kg/injection, schedule: Q01DX001 (ip), vehicle: other) was 252 % of control.

With `[O]=[Sn]([OH])[OH]` the T/C (dose: 100.0 mg/kg/injection, schedule: Q01DX009 (ip), vehicle: saline) was 97 % of control and the T/C (dose: 200.0 mg/kg/injection, schedule: Q01DX009 (ip), vehicle: saline) was 94 % of control.

For `CC1=CC(=O)C(C)(C)C=C1`, the T/C [3] was 104 % of control, the T/C (dose: 100.0 mg/kg/injection, schedule: Q04DX003 (ip), vehicle: saline with Tween-80) was 108 % of control and the T/C [4] was 101 % of control. The T/C (dose: 200.0 mg/kg/injection, schedule: Q04DX003 (ip), vehicle: saline with Tween-80) was 100 % of control and the T/C (dose: 400.0 mg/kg/injection, schedule: Q01DX009 (ip), vehicle: saline with Tween-80) was 96 % of control.

`CN(C)c1c(-c2ccc(Cl)cc2)cc(-c2ccccc2)[nH]c1=O` was tested, and the T/C [5] was 97 % of control, the T/C (dose: 100.0 mg/kg/injection, schedule: Q01DX009 (ip), vehicle: acetone) was 95 % of control and the T/C [6] was 89 % of control. The T/C [7] was 91 % of control, the T/C (dose: 200.0 mg/kg/injection, schedule: Q01DX009 (ip), vehicle: acetone) was 98 % of control and the T/C [8] was 89 % of control. For the same compound, the T/C [9] was 91 % of control, the T/C (dose: 400.0 mg/kg/injection, schedule: Q01DX009 (ip), vehicle: acetone) was 93 % of control and the T/C [10] was 87 % of control.

For `CC1(C)N=C(N)N=C(N)N1c1cccc(/C=C/C=C/c2cccc([N+](=O)[O-])c2)c1`, the T/C [11] was 100 % of control.

`COc1cc2c(cc1OC)C1CCC3=C(O)CCC3=[N+]1CC2` (stereo not drawn) was tested, and the T/C (dose: 100.0 mg/kg/injection, schedule: Q04DX002 (ip), vehicle: Klucel (hydroxypropylcellulose) (HPC)) was 101 % of control and the T/C (dose: 200.0 mg/kg/injection, schedule: Q04DX002 (ip), vehicle: Klucel (hydroxypropylcellulose) (HPC)) was 86 % of control.

With `O=C1C=C(Nc2ccc([N+](=O)[O-])cc2)C(=O)c2ccccc21` the T/C (dose: 75.0 mg/kg/injection, schedule: Q01DX001 (ip), vehicle: carboxymethylcellulose (CMC)) was 87 % of control and the T/C (dose: 300.0 mg/kg/injection, schedule: Q01DX001 (ip), vehicle: carboxymethylcellulose (CMC)) was 89 % of control.

In the case of `CCN(CC)C(=O)Nc1cccc(OC(=O)N(C)C)c1`, the T/C [3] was 87 % of control and the T/C [4] was 89 % of control.

In the case of `O=[N+]([O-])c1ccc(N/N=C2/C(=C/c3cccc4ccccc34)CCc3ccccc32)c([N+](=O)[O-])c1`, the T/C [1] was 91 % of control, the T/C [2] was 89 % of control and the T/C (dose: 400.0 mg/kg/injection, schedule: Q01DX009 (ip), vehicle: Klucel (hydroxypropylcellulose) (HPC)) was 91 % of control.

For `CCOC(=O)c1c(O)c(C(=O)O)cc2ccccc12`, the T/C [12] was 106 % of control, the T/C [5] was 108 % of control and the T/C [7] was 106 % of control. The T/C [9] was 106 % of control.

With `CCOC(=O)C(CC(C)C)NP(=O)(CCl)N(CCCl)CCCl` (stereo not drawn) the T/C (dose: 25.0 mg/kg/injection, schedule: Q01DX015 (ip), vehicle: other) was 102 % of control, the T/C (dose: 50.0 mg/kg/injection, schedule: Q01DX015 (ip), vehicle: other) was 104 % of control and the T/C [11] was 104 % of control. For the same compound, the T/C (dose: 100.0 mg/kg/injection, schedule: Q01DX015 (ip), vehicle: other) was 102 % of control, the T/C [6] was 95 % of control and the T/C (dose: 200.0 mg/kg/injection, schedule: Q01DX001 (ip), vehicle: saline) was 104 % of control. The T/C (dose: 200.0 mg/kg/injection, schedule: Q01DX015 (ip), vehicle: other) was 102 % of control, the T/C [8] was 95 % of control and the T/C (dose: 400.0 mg/kg/injection, schedule: Q01DX001 (ip), vehicle: saline) was 106 % of control. For the same compound, the T/C [10] was 91 % of control.

For `O=C1c2ccccc2C(=O)C2C3C=CC(C3)C12` (stereo not drawn), the T/C [12] was 93 % of control, the T/C [5] was 100 % of control and the T/C [7] was 100 % of control. For the same compound, the T/C [9] was 103 % of control.

In the case of `C=CCN(CC=C)CCN1CCN(CCCN2c3ccccc3Sc3ccc(C(F)(F)F)cc32)CC1`, the T/C (dose: 6.25 mg/kg/injection, schedule: Q01DX009 (ip), vehicle: saline) was 98 % of control, the T/C (dose: 6.25 mg/kg/injection, schedule: Q04DX003 (ip), vehicle: saline) was 109 % of control and the T/C (dose: 12.5 mg/kg/injection, schedule: Q01DX009 (ip), vehicle: saline) was 100 % of control. The T/C (dose: 12.5 mg/kg/injection, schedule: Q04DX003 (ip), vehicle: saline) was 91 % of control, the T/C (dose: 25.0 mg/kg/injection, schedule: Q01DX009 (ip), vehicle: saline) was 94 % of control and the T/C (dose: 25.0 mg/kg/injection, schedule: Q04DX003 (ip), vehicle: saline) was 112 % of control. The T/C (dose: 50.0 mg/kg/injection, schedule: Q04DX003 (ip), vehicle: saline) was 97 % of control, the T/C (dose: 56.25 mg/kg/injection, schedule: Q01DX001 (ip), vehicle: saline) was 102 % of control and the T/C [6] was 119 % of control. For the same compound, the T/C (dose: 112.5 mg/kg/injection, schedule: Q01DX001 (ip), vehicle: saline) was 114 % of control.

`[O-]/[N+](=C\c1ccccc1)C(c1ccccc1)c1ccccc1` was tested, and the T/C (dose: 75.0 mg/kg/injection, schedule: Q04DX003 (ip), vehicle: saline) was 97 % of control, the T/C (dose: 150.0 mg/kg/injection, schedule: Q04DX003 (ip), vehicle: saline) was 96 % of control and the T/C (dose: 300.0 mg/kg/injection, schedule: Q04DX003 (ip), vehicle: saline) was 89 % of control.
